Like-named read-outs stand apart in the source and are kept apart here.
Legend:
beta₂ lung receptor = target: T1, beta₂ lung receptor (Mus musculus, UniProt P18762); assay: binding test, beta2 lung receptors
T1 construct: Ki (nM) mouse lung beta₂ receptors; from tissue; host or cells: mouse lung
Description: (§1) Moreover, the beta-blocking activity has been tested by means of the binding test both towards beta₁ heart receptors and towards beta₂ lung receptor in mouse according to the methods described in the J. Biol. Chem., 253, 5090, (1978) and in the Br. j. Pharmacol., 68, 57, (1980).

anesthetized dog = assay: heart rate and mean arterial pressure in the anesthetized dog; assay type: in vivo; settings: doses of from 100 to 400 ug/kg
Description: The compounds of formula I produce antihypertensive effects in mouse and dog with concomitant reduction of the heart rate.
For example, in the anesthetized dog, compound 1 caused a heart rate reduction of from 9 to 23% and a reduction of the mean arterial pressure of from 3 to 15% at doses of from 100 to 400 ug/kg; at the same doses diastereoisomer A caused a heart rate reduction of from 17 to 30% and a mean arterial pressure reduction of from 12 to 25%, respectively.

beta₁ heart receptors = target: T2, beta₁ heart receptors (Mus musculus, UniProt P34971); assay: binding test, beta1 heart receptors
T2 construct: from tissue; host or cells: mouse heart
Description: as §1

rabbit mesenteric artery = assay: calcium-antagonist activity, rabbit mesenteric artery test (antagonism of 3 mM Ca++ in Krebs depolarizer); settings: Ca++ submaximal concentration 3mM, read-out: IC₅₀
Description: Calcium-antagonist activity of the compounds of formula I has been tested as capability of antagonizing the effect of Ca⁺⁺ submaximal concentrations (3mM) on preparations of rabbit mesenteric artery in Krebs depolarizer, prepared according to Towart "J. Cardiovasc. Pharmacol. 4, 895, (1982)".
The compounds of this invention, tested as calcium antagonist agents on the rabbit mesnteric artery show an IC₅₀ of from 10 to 200 (nM); Ki affinity for beta₁ receptors is of from 30 to 2000 (nM) and for beta₂ receptors is of from 20 to 5000 (nM).

T2 sequence (P34971 whole entry): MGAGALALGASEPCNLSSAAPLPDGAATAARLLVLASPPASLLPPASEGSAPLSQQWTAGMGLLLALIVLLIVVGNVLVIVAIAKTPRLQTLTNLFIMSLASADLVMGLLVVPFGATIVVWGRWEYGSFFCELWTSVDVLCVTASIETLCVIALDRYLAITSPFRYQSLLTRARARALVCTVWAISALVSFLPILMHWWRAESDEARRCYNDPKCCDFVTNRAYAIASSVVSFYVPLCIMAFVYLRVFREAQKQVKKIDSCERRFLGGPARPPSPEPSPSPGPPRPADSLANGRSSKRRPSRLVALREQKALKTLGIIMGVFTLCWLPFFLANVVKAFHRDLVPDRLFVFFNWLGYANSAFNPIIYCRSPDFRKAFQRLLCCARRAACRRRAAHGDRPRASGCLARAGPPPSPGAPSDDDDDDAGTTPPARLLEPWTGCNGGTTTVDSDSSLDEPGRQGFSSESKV
T1 sequence (P18762 whole entry): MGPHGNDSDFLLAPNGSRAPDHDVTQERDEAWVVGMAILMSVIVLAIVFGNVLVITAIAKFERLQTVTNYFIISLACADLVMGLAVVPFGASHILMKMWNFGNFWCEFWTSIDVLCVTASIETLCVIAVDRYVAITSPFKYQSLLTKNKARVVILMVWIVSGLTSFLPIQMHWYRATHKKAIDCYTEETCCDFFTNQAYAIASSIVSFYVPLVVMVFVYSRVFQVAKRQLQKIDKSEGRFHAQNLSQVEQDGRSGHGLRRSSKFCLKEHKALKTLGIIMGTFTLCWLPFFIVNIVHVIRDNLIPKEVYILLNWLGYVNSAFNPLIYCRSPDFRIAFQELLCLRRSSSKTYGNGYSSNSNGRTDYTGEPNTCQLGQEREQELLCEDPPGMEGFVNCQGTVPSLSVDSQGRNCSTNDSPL

CCOC(=O)C1=C(C)NC(CN(C)CC(C)(C)NCC(O)COc2ccccc2OC)=C(C(=O)OCC)C1c1cccc([N+](=O)[O-])c1 (single isomer, unassigned) [diastereoisomer A]
Ki (beta₂ lung receptor): 2050 nM | duration of hypotensive effect and bradycardia (anesthetized dog): lasting over five hours | Ki (beta₁ heart receptors): 600 nM | IC50 (rabbit mesenteric artery): 15 nM

CCOC(=O)C1=C(C)NC(CN(C)CC(C)(C)NCC(O)COc2ccccc2OC)=C(C(=O)OCC)C1c1cccc([N+](=O)[O-])c1 (single isomer, unassigned) [diastereoisomer B]
Ki (beta₂ lung receptor): 560 nM | Ki (beta₁ heart receptors): 165 nM | IC50 (rabbit mesenteric artery): 120 nM

CCOC(=O)C1=C(C)NC(CN(C)CC(C)(C)NCC(O)COc2ccccc2OC)=C(C(=O)OCC)C1c1cccc([N+](=O)[O-])c1 (stereo not shown) [Compound 1, ethyl 1,4-dihydro-6-methyl-2-(N-methyl-N-(2-(2-hydroxy-3-(2-methoxyphenoxy)-propylamino)-2-methylpropyl)aminomethyl)-4-(3-nitrophenyl)-3,5-pyridinedicarboxylate]
IC50 (rabbit mesenteric artery; Oryctolagus cuniculus): 47 nM

CC(C)NCC(O)COc1ccc(CC(N)=O)cc1 (stereo not shown) [atenolol, reference compound]
Ki (beta₂ lung receptor): 18000 nM | Ki (beta₁ heart receptors): 840 nM

Reference: patent publication EP0352863A2, “1,4-Dihydropyridine dicarboxylic acid derivatives” (ZAMBON GROUP S.p.A., priority 1988, dated 1990)
